Experimental data reported in patent US20150307938A1, “METHOD TO IDENTIFY A NOVEL CLASS OF IMMUNOLOGIC ADJUVANTS” (Lancell, L.L.C., priority 2011, published 2015).

Tested on: skin
Experiment: Affymetrix microarray of skin, DBP-4 hr and analogs vs. untreated; gene selection by log-2 fold change, Wilcoxon, Kendall tau (Tables 8, 9)
Format: in vivo, mouse
Details: for Kendall: Kendall tau, expression vs. outcome

For CCCCOC(=O)c1ccccc1C(=O)OCCCC [DBP, dibutylphthalate], the Wilcoxon (gene #557 Il10ra NM_008348_at, DBP-4 hr vs. untreated) was “No”, the Kendall (gene #557 Il10ra NM_008348_at) was “Yes” and the Wilcoxon (gene #558 Il7 NM_008371_at, DBP-4 hr vs. untreated) was “No”. For the same compound, the Kendall (gene #558 Il7 NM_008371_at) was “Yes”, the Wilcoxon (gene #559 Kif3a NM_008443_at, DBP-4 hr vs. untreated) was “No” and the Kendall (gene #559 Kif3a NM_008443_at) was “Yes”. The Wilcoxon (gene #560 Lmo2 NM_008505_at, DBP-4 hr vs. untreated) was “No”, the Kendall (gene #560 Lmo2 NM_008505_at) was “Yes” and the Wilcoxon (gene #561 Mcl1 NM_008562_at, DBP-4 hr vs. untreated) was “No”. For the same compound, the Kendall (gene #561 Mcl1 NM_008562_at) was “Yes”, the Wilcoxon (gene #562 Meox2 NM_008584_at, DBP-4 hr vs. untreated) was “No” and the Kendall (gene #562 Meox2 NM_008584_at) was “Yes”. The Wilcoxon (gene #563 Mtf1 NM_008636_at, DBP-4 hr vs. untreated) was “No”, the Kendall (gene #563 Mtf1 NM_008636_at) was “Yes” and the Wilcoxon (gene #564 Mut NM_008650_at, DBP-4 hr vs. untreated) was “No”. The Kendall (gene #564 Mut NM_008650_at) was “Yes”, the Wilcoxon (gene #565 Ppp1r15a NM_008654_at, DBP-4 hr vs. untreated) was “No” and the Kendall (gene #565 Ppp1r15a NM_008654_at) was “Yes”. The Wilcoxon (gene #566 Ncf4 NM_008677_at, DBP-4 hr vs. untreated) was “No”, the Kendall (gene #566 Ncf4 NM_008677_at) was “Yes” and the Wilcoxon (gene #567 Nos3 NM_008713_at, DBP-4 hr vs. untreated) was “No”. The Kendall (gene #567 Nos3 NM_008713_at) was “Yes”, the Wilcoxon (gene #568 Pigf NM_008838_at, DBP-4 hr vs. untreated) was “No” and the Kendall (gene #568 Pigf NM_008838_at) was “Yes”. For the same compound, the Wilcoxon (gene #569 Map2k3 NM_008928_at, DBP-4 hr vs. untreated) was “No”, the Kendall (gene #569 Map2k3 NM_008928_at) was “Yes” and the Wilcoxon (gene #570 Rad50 NM_009012_at, DBP-4 hr vs. untreated) was “No”. The Kendall (gene #570 Rad50 NM_009012_at) was “Yes”, the Wilcoxon (gene #571 Ralgds NM_009058_at, DBP-4 hr vs. untreated) was “No” and the Kendall (gene #571 Ralgds NM_009058_at) was “Yes”. The Wilcoxon (gene #572 Hltf NM_009210_at, DBP-4 hr vs. untreated) was “No”, the Kendall (gene #572 Hltf NM_009210_at) was “Yes” and the Wilcoxon (gene #573 Serpina3n NM_009252_at, DBP-4 hr vs. untreated) was “No”. The Kendall (gene #573 Serpina3n NM_009252_at) was “Yes”, the Wilcoxon (gene #574 Tnfaip1 NM_009395_at, DBP-4 hr vs. untreated) was “No” and the Kendall (gene #574 Tnfaip1 NM_009395_at) was “Yes”. For the same compound, the Wilcoxon (gene #575 Tuba4a NM_009447_at, DBP-4 hr vs. untreated) was “No”, the Kendall (gene #575 Tuba4a NM_009447_at) was “Yes” and the Wilcoxon (gene #576 Zfp101 NM_009542_at, DBP-4 hr vs. untreated) was “No”. The Kendall (gene #576 Zfp101 NM_009542_at) was “Yes”, the Wilcoxon (gene #577 Parp2 NM_009632_at, DBP-4 hr vs. untreated) was “No” and the Kendall (gene #577 Parp2 NM_009632_at) was “Yes”. The Wilcoxon (gene #578 Aldh2 NM_009656_at, DBP-4 hr vs. untreated) was “No”, the Kendall (gene #578 Aldh2 NM_009656_at) was “Yes” and the Wilcoxon (gene #579 Cebpb NM_009883_at, DBP-4 hr vs. untreated) was “No”. For the same compound, the Kendall (gene #579 Cebpb NM_009883_at) was “Yes”, the Wilcoxon (gene #580 Bcar1 NM_009954_at, DBP-4 hr vs. untreated) was “No” and the Kendall (gene #580 Bcar1 NM_009954_at) was “Yes”. For the same compound, the Wilcoxon (gene #581 Eci1 NM_010023_at, DBP-4 hr vs. untreated) was “No”, the Kendall (gene #581 Eci1 NM_010023_at) was “Yes” and the Wilcoxon (gene #582 Ddt NM_010027_at, DBP-4 hr vs. untreated) was “No”. For the same compound, the Kendall (gene #582 Ddt NM_010027_at) was “Yes”, the Wilcoxon (gene #583 Egr2 NM_010118_at, DBP-4 hr vs. untreated) was “No” and the Kendall (gene #583 Egr2 NM_010118_at) was “Yes”. For the same compound, the Wilcoxon (gene #584 F2r NM_010169_at, DBP-4 hr vs. untreated) was “No”, the Kendall (gene #584 F2r NM_010169_at) was “Yes” and the “Wilcoxon: Abhd6” value (gene Abhd6, NM_025341_at, DBP-4 hr vs. untreated) was “No”. The “Kendall: Abhd6” value (gene Abhd6, NM_025341_at, gene expression vs. output) was “Yes”, the “Wilcoxon: Acad8” value (gene Acad8, NM_025862_at, DBP-4 hr vs. untreated) was “No” and the “Kendall: Acad8” value (gene Acad8, NM_025862_at, gene expression vs. output) was “Yes”. For the same compound, the “Wilcoxon: Ak2” value (gene Ak2, NM_016895_at, DBP-4 hr vs. untreated) was “No”, the “Kendall: Ak2” value (gene Ak2, NM_016895_at, gene expression vs. output) was “Yes” and the “Wilcoxon: Akr1e1” value (gene Akr1e1, NM_018859_at, DBP-4 hr vs. untreated) was “No”. The “Kendall: Akr1e1” value (gene Akr1e1, NM_018859_at, gene expression vs. output) was “Yes”, the “Wilcoxon: Avpr1a” value (gene Avpr1a, NM_016847_at, DBP-4 hr vs. untreated) was “No” and the “Kendall: Avpr1a” value (gene Avpr1a, NM_016847_at, gene expression vs. output) was “Yes”. For the same compound, the “Wilcoxon: B4galt1” value (gene B4galt1, NM_022305_at, DBP-4 hr vs. untreated) was “No”, the “Kendall: B4galt1” value (gene B4galt1, NM_022305_at, gene expression vs. output) was “Yes” and the “Wilcoxon: Bphl” value (gene Bphl, NM_026512_at, DBP-4 hr vs. untreated) was “No”. For the same compound, the “Kendall: Bphl” value (gene Bphl, NM_026512_at, gene expression vs. output) was “Yes”, the “Wilcoxon: Cdkl2” value (gene Cdkl2, NM_016912_at, DBP-4 hr vs. untreated) was “No” and the “Kendall: Cdkl2” value (gene Cdkl2, NM_016912_at, gene expression vs. output) was “Yes”. For the same compound, the “Wilcoxon: Cep70” value (gene Cep70, NM_023873_at, DBP-4 hr vs. untreated) was “No”, the “Kendall: Cep70” value (gene Cep70, NM_023873_at, gene expression vs. output) was “Yes” and the “Wilcoxon: Cirh1a” value (gene Cirh1a, NM_011574_at, DBP-4 hr vs. untreated) was “No”. For the same compound, the “Kendall: Cirh1a” value (gene Cirh1a, NM_011574_at, gene expression vs. output) was “Yes”, the “Wilcoxon: Clec14a” value (gene Clec14a, NM_025809_at, DBP-4 hr vs. untreated) was “No” and the “Kendall: Clec14a” value (gene Clec14a, NM_025809_at, gene expression vs. output) was “Yes”. The “Wilcoxon: Commd4” value (gene Commd4, NM_025417_at, DBP-4 hr vs. untreated) was “No”, the “Kendall: Commd4” value (gene Commd4, NM_025417_at, gene expression vs. output) was “Yes” and the “Wilcoxon: Cr1l” value (gene Cr1l, NM_013499_at, DBP-4 hr vs. untreated) was “No”. For the same compound, the “Kendall: Cr1l” value (gene Cr1l, NM_013499_at, gene expression vs. output) was “Yes”, the “Wilcoxon: Cyth1” value (gene Cyth1, NM_011180_at, DBP-4 hr vs. untreated) was “No” and the “Kendall: Cyth1” value (gene Cyth1, NM_011180_at, gene expression vs. output) was “Yes”. For the same compound, the “Wilcoxon: D16Ertd472e” value (gene D16Ertd472e, NM_025967_at, DBP-4 hr vs. untreated) was “No”, the “Kendall: D16Ertd472e” value (gene D16Ertd472e, NM_025967_at, gene expression vs. output) was “Yes” and the “Wilcoxon: Dcxr” value (gene Dcxr, NM_026428_at, DBP-4 hr vs. untreated) was “No”. The “Kendall: Dcxr” value (gene Dcxr, NM_026428_at, gene expression vs. output) was “Yes” and the “Wilcoxon: Dda1” value (gene Dda1, NM_025600_at, DBP-4 hr vs. untreated) was “No”.
